Values joined by “and” are separate entries in the source; they are usually repeats but may differ in a detail not shown here. Identical values can stand only once.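 Dose response: 5 concentrations. Exposure: 48 h. Format: 96-well plates. Endpoint: linear interpolation; highest concentration if not reached. GI50 marks 50% less growth. TGI is the concentration that stops growth completely.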
What was measured:
Assay in all cases: NCI tumour cell line growth inhibition, 48 h
ACHN renal = test system: ACHN renal
CAKI-1 renal = test system: CAKI-1 renal
CCRF-CEM leukemia = test system: CCRF-CEM leukemia
HCT-15 colon = test system: HCT-15 colon
NCI-H23 lung = test system: NCI-H23 lung
OVCAR-4 ovarian = test system: OVCAR-4 ovarian
SK-MEL-28 melanoma = test system: SK-MEL-28 melanoma
SK-MEL-5 melanoma = test system: SK-MEL-5 melanoma
SW-620 colon = test system: SW-620 colon
UO-31 renal = test system: UO-31 renal

Row | SMILES | TGI (ACHN renal) [µM] | TGI (CAKI-1 renal) [µM] | TGI (CCRF-CEM leukemia) [µM] | TGI (HCT-15 colon) [µM] | TGI (NCI-H23 lung) [µM] | TGI (OVCAR-4 ovarian) [µM] | TGI (SK-MEL-28 melanoma) [µM] | TGI (SK-MEL-5 melanoma) [µM] | TGI (SW-620 colon) [µM] | TGI (UO-31 renal) [µM] | GI50 (ACHN renal) | GI50 (CAKI-1 renal) | GI50 (CCRF-CEM leukemia) [nM] | GI50 (HCT-15 colon) | GI50 (NCI-H23 lung) [nM] | GI50 (OVCAR-4 ovarian) [nM] | GI50 (SK-MEL-28 melanoma) [nM] | GI50 (SK-MEL-5 melanoma) | GI50 (SW-620 colon) | GI50 (UO-31 renal) [µM]
1 | C/C(CN1C(=O)c2ccccc2C1=O)=N\NS(=O)(=O)c1ccccc1 | > 100 | > 100 | > 100 | > 100 | > 100 | > 100 | > 100 | > 100 | > 100 | > 100 |  |  |  |  |  |  |  |  |  | 
2 | CCOP(=O)(CCP(=O)(OCC)OCC)OCC.C[CH2][Sn]([Cl])([Cl])[CH2]C | 57.1 | 35 | 50.5 | > 78.7 | 49 | > 71.9 | > 61.9 | > 86.7 | 42.1 | > 66.5 | 36.7 µM | 13900 nM | 15500 | 51200 nM | 19900 | > 48700 | 35600 | 36400 nM | 21200 nM | > 54.2
3 | O=C1NC(=NCc2cccs2)SC1Cc1ccc2ncccc2c1 (centres undefined) | > 25 | > 25 | > 25 | > 25 | > 25 | > 25 | > 25 | > 25 | > 25 | > 25 | 24.7 µM | 19500 nM | 11700 | 11400 nM | > 25000 | > 25000 | > 19900 | 17400 nM | 9160 nM | > 23.6
4 | COc1c(OC(C)=O)cc2c(OC(C)=O)c1CC(C)CC(OC)C(O)C(C)/C=C(\C)C(OC(N)=O)C(OC)/C=C\C=C(/C)C(=O)N2 (centres undefined) | > 100 | > 100 | 98.3 | > 100 | > 100 | > 100 | > 100 | > 100 | > 100 | > 100 |  |  |  |  |  |  |  |  |  | 
5 | OC(c1ccccc1)(c1ccccc1)c1ccccn1 | > 100 | > 100 | > 100 | > 100 | > 100 | > 100 | > 100 | > 100 | > 100 | > 100 |  |  |  |  |  |  |  |  |  | 
6 | CCCc1cc(=O)oc2c(C(=O)CC(C)C)c(O)c(CC=C(C)C)c(O)c12 | 47.1 | 33.9 | > 50 | > 50 | 45.8 | > 50 | > 50 | 11 | > 50 | > 50 | 7.53 µM | 8380 nM | 4970 | 5810 nM | 4050 | 10700 | 6210 | 2530 nM | 14900 nM | 12.1
7 | COc1ccc2c(=O)c([Se]c3coc4cc(OC)ccc4c3=O)coc2c1 | > 100 | > 100 | > 100 | > 100 | > 100 | > 100 | > 100 | > 100 | > 100 | > 100 |  |  |  |  |  |  |  |  |  | 
8 | CSC1=Nc2c(c(C)c(-c3ccccc3)n2COC(CO)CO)C2=NC(=O)C(C)N12 (centres undefined) | > 100 | > 100 | > 100 | > 100 | > 100 | > 100 | > 100 | > 100 | > 100 | > 100 | > 100 µM | > 100000 nM | > 100000 | > 100000 nM | > 100000 | > 100000 | > 100000 | > 100000 nM | > 100000 nM | > 100
9 | CC/C(=N\Nc1nc2ccccc2n1C)c1ccccn1 | 6.28 | 1.98 | > 36 | 12.9 | 17.6 | 4.68 | 13.5 | 1.39 | 15 | 1.16 | < 0.016 µM | 113 nM | 29.4 | 14.1 nM | 45.2 | < 18.5 | 214 | 174 nM | 39.3 nM | 0.0761
10 | CCC(=O)C1=C(OC(C)=O)C2Cc3c(n(C)c4ccccc34)C(C1)N2C (centres undefined) | > 100 | > 100 | 80.9 | 38 | > 100 | > 100 | > 100 | 97.9 | 90.1 | > 100 |  |  |  |  |  |  |  |  |  | 
11 | COc1cc(/C=C/C(=O)C(=Cc2ccc(F)c(F)c2)C(=O)/C=C/c2ccc(O)c(OC)c2)ccc1O | 19.9 | 20.2 | > 100 | 10.1 | 8.56 | 10.7 | 3.8 | 5.3 | 3.62 | 16.8 | 3.27 µM | 3510 nM | 2460 | 2820 nM | 2800 | 2960 | 1870 | 2180 nM | 1840 nM | 3.04
12 | Nc1nc(N)c2cc(CNc3ccc(Cl)c(Cl)c3)ccc2n1 | 1.71 | 2.54 | 1.88 | 1.72 | 2.11 | 2.37 | 2.84 | 1.82 | 1.5 | 2.17 | 0.495 µM | 1220 nM | 395 | 365 nM | 710 | 1160 | 1510 | 519 nM | 133 nM | 0.865
13 | COC(=O)[C@]12CC[C@@H](C)[C@H](C)[C@@H]1C1=CC[C@@H]3[C@@]4(C)C[C@@H](OC(=O)c5ccco5)[C@H](O)[C@@](C)(CO)[C@@H]4[C@H](O)C[C@@]3(C)[C@]1(C)CC2 | 7.69 | 10.9 | 5.77 | 3.89 | 6.66 | 13.5 | 4.71 | 4.09 | 3.54 | 7.42 | 2.76 µM | 2990 nM | 2410 | 1840 nM | 2420 | 3410 | 2170 | 1990 nM | 1790 nM | 2.02
14 | Nc1nnc2nc(CC(=O)/C=C/c3ccccc3)c(=O)[nH]n12 | > 100 | > 100 | > 100 | > 100 | > 100 | > 100 | > 100 | > 100 | > 100 | > 100 |  |  |  |  |  |  |  |  |  | 
15 | N/C(=N\O)c1ncc(-c2ccc(C(F)(F)F)cc2)c(NC2CCCCCC2)n1 | 13.3 | 8.1 | 11.8 | 15.1 | 16.3 | 15 | 19 | 15.5 | 15.4 | 10.9 | 4.49 µM and 2.23 µM | 5710 nM and 1690 nM | 2460 | 2970 nM and 955 nM | 3760 | 2720 | 5380 | 4660 nM and 3440 nM | 4920 nM and 3880 nM | 
16 | CCCCCCN(CCCCCC)CCCNc1nccc2ccccc12 | 4.47 | 5.33 | 10.7 | 3.21 | 3.83 | 7.72 | 3.17 | 3.13 | 2.96 | 3.04 | 1.9 µM | 1920 nM | 2470 | 1410 nM | 1800 | 2090 | 1640 | 1700 nM | 1290 nM | 1.35
17 | CC1C2Cc3ccc(O)cc3C1(C)CCN2C (centres undefined) | > 100 | > 100 | > 100 | > 100 | > 100 | > 100 | > 100 | > 100 | > 100 | > 100 |  |  |  |  |  |  |  |  |  | 
18 | O=C(CCCn1c2c(sc3ncccc32)c(=O)n2nnc(-c3ccccc3)c12)NCCc1cnc[nH]1 | 31 | 14.4 | 4.48 | > 100 | 32.2 | 32.2 | 35 | > 100 | 14.4 | 26.7 | 15.3 µM | 2890 nM | 222 | 5800 nM | 14500 | 15400 | 17000 | 16100 nM | 331 nM | 11.9
19 | O=C(Oc1cccnc1)c1ccccc1Nc1ccnc(C(F)(F)F)c1 | > 74.6 | 46.9 | > 100 | > 100 | 1.83 | > 100 | > 60.1 | 2.35 | > 100 | > 87.3 | 0.353 µM | 52.5 nM | 33.4 | 121 nM | 49 | 207 | 483 | 203 nM | 49.8 nM | 3.84
20 | CCOc1ccccc1NC(=O)C(=O)CC(=O)C1=C(C)Nc2ccccc2S1 | > 100 | > 100 | > 100 | > 100 | > 100 | > 100 | > 100 | > 100 | > 100 | > 100 |  |  |  |  |  |  |  |  |  | 
21 | O=c1[nH]c(=S)[nH]c2c1sc(=S)n2-c1ccccc1 | > 100 | > 100 | > 100 | > 100 | > 100 | > 100 | > 100 | > 100 | > 100 | > 100 |  |  |  |  |  |  |  |  |  | 

— PubChem BioAssay (NCI)
